For 17 compounds, GI50 and TGI results are on record in PubChem BioAssay (NCI).

Each structure is given as a SMILES string. “And” between values parts separate entries of the source, which are not always exact repeats. Equal values may be shown once.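 48-hour exposure; five concentrations; linearly interpolated endpoints. GI50 marks 50% less growth. TGI: total growth inhibition.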

One experiment relates to OVCAR-4 ovarian. The experiment is described as follows: NCI tumour cell line growth inhibition, 48 h.
`N#Cc1c(N2CCOCC2)nc(=S)[nH]c1-c1ccco1`: the GI50 is 16.9 µM and the TGI is over 100 µM.

Turning to `C[C@@H]1CN(Cc2ccc(F)cc2)[C@@H](C)CN1C(=O)c1cc2c(C(=O)C(=O)N(C)C)cn(C)c2cc1Cl`, the GI50 is 22.1 µM and the TGI was over 90.3 µM.

The compound `COc1ccccc1-c1cc(=O)c2cc(C)cnc2[nH]1` showed a TGI of over 100 µM.

Turning to `O=[N+]([O-])c1ccc(C=Cc2ccccc2)cc1.[C-]#[O+].[C-]#[O+].[C-]#[O+].[Cr]`, the GI50 is 8.93 µM and the TGI is over 100 µM.

In the case of `OCC1OC(n2cnc3c(N/N=C\c4ccccn4)ncnc32)C(O)C1O` (stereo unspecified), the GI50 was 0.115 µM.

`CC(=O)Nc1ccc(SC#N)c2c(NC(C)=O)cccc12` yielded a TGI of over 100 µM.

As to `COc1cc2c(cc1OCCCn1c(-c3ccccn3)nc3ccccc31)N=C[C@@H]1CCCN1C2=O`, the GI50 is 3.39 µM and the TGI is over 42.6 µM.

Take `c1cnn2ncc(-c3ccnc(NCCCN4CCOCC4)n3)c2c1`: the GI50 is 11 µM and the TGI is over 25 µM.

For the compound `COc1ccc2c(c1)N(CCO)C1=C(C(=O)OC1)C2c1cccc(F)c1` (stereo unspecified), the GI50 is 1.83 µM and the TGI is over 50 µM.

Turning to `C=CC(=O)Nc1cccc(Oc2nc(Nc3ccc(N4CCN(C)CC4)cc3)nc3ccsc23)c1`, the GI50 is 2.74 µM and 3.23 µM; the TGI is > 10 µM and 11.4 µM.

The compound `COC1C=COC2(C)Oc3c(C)c(O)c4c(c3C2=O)/C(=N/C2CCC(O)OC2C)C=C(NC(=O)/C(C)=C\C(=O)C2CC2C(O)C(C)C(O)C(C)C(OC(C)=O)C1C)C4=O` (stereo unspecified) returned a TGI of 10.6 µM.

Regarding `CC(=O)/C=C/c1cn(C(=O)OC(C)(C)C)c2ccc(Br)cc12`, the GI50 is 25.7 µM and the TGI is over 100 µM.

As for `CCOc1ccccc1C(=O)N1CCN(c2cc(Cl)cc(Cl)c2)CC1`, the GI50 is 0.266 µM and the TGI amounted to 18.5 µM.

For the compound `O=C1c2c(c3c4ccccc4[nH]c3c3ccc4ccccc4c23)C(=O)N1CCN1CCNCC1`, the GI50 is 1.65 µM and the TGI was determined as 3.26 µM.

For `COc1cc2c(cc1C1COc3cc4occc4cc3C1=O)OCO2` (stereo unspecified), the TGI is 36.5 µM.

On to `Cc1cc(S(=O)(=O)/N=C(/N)Nc2ccccc2O)c(SCc2ccccc2)cc1Cl`, for which the GI50 was 11.4 µM and the TGI came to 34.9 µM.

Turning to `Cc1c(/C=N/N=C/c2[nH]c(C(=O)OC(C)(C)C)c(C)c2C)[nH]c(C(=O)OC(C)(C)C)c1C`, the TGI is over 100 µM.

The subject of another experiment is SNB-19 CNS. Description: NCI tumour cell line growth inhibition, 48 h.
For `N#Cc1c(N2CCOCC2)nc(=S)[nH]c1-c1ccco1`, the GI50 is 26 µM and the TGI was over 100 µM.

Regarding `C[C@@H]1CN(Cc2ccc(F)cc2)[C@@H](C)CN1C(=O)c1cc2c(C(=O)C(=O)N(C)C)cn(C)c2cc1Cl`, the GI50 was 17.4 µM and the TGI was 64.1 µM.

The compound `COc1ccccc1-c1cc(=O)c2cc(C)cnc2[nH]1` showed a TGI of over 100 µM.

In the case of `O=[N+]([O-])c1ccc(C=Cc2ccccc2)cc1.[C-]#[O+].[C-]#[O+].[C-]#[O+].[Cr]`, the GI50 was over 100 µM and the TGI was over 100 µM.

For `OCC1OC(n2cnc3c(N/N=C\c4ccccn4)ncnc32)C(O)C1O` (stereo unspecified), the GI50 was 0.364 µM and the TGI is over 100 µM.

`CC(=O)Nc1ccc(SC#N)c2c(NC(C)=O)cccc12` had a TGI of over 100 µM.

Regarding `COc1cc2c(cc1OCCCn1c(-c3ccccn3)nc3ccccc31)N=C[C@@H]1CCCN1C2=O`, the GI50 is 3.61 µM and the TGI was 18.1 µM.

For the compound `c1cnn2ncc(-c3ccnc(NCCCN4CCOCC4)n3)c2c1`, the GI50 was 8.35 µM and the TGI was over 25 µM.

For `COc1ccc2c(c1)N(CCO)C1=C(C(=O)OC1)C2c1cccc(F)c1` (stereo unspecified), the GI50 is 0.288 µM and the TGI is over 50 µM.

In the case of `C=CC(=O)Nc1cccc(Oc2nc(Nc3ccc(N4CCN(C)CC4)cc3)nc3ccsc23)c1`, the GI50 is 3.51 µM and 3.35 µM; the TGI was > 10 µM and 14.1 µM.

In turn, `COC1C=COC2(C)Oc3c(C)c(O)c4c(c3C2=O)/C(=N/C2CCC(O)OC2C)C=C(NC(=O)/C(C)=C\C(=O)C2CC2C(O)C(C)C(O)C(C)C(OC(C)=O)C1C)C4=O` (stereo unspecified) came in with a TGI of 11.6 µM.

Consider `CC(=O)/C=C/c1cn(C(=O)OC(C)(C)C)c2ccc(Br)cc12`, for which the GI50 is 15.4 µM and the TGI is 30.1 µM.

In the case of `CCOc1ccccc1C(=O)N1CCN(c2cc(Cl)cc(Cl)c2)CC1`, the GI50 was 0.0432 µM and the TGI was 15.8 µM.

Consider `O=C1c2c(c3c4ccccc4[nH]c3c3ccc4ccccc4c23)C(=O)N1CCN1CCNCC1`, for which the GI50 was 1.6 µM and the TGI is 2.99 µM.

Turning to `COc1cc2c(cc1C1COc3cc4occc4cc3C1=O)OCO2` (stereo unspecified), the TGI is over 100 µM.

As to `Cc1cc(S(=O)(=O)/N=C(/N)Nc2ccccc2O)c(SCc2ccccc2)cc1Cl`, the GI50 is 16.6 µM and the TGI worked out at 34 µM.

The compound `Cc1c(/C=N/N=C/c2[nH]c(C(=O)OC(C)(C)C)c(C)c2C)[nH]c(C(=O)OC(C)(C)C)c1C` showed a TGI of over 100 µM.

In a further experiment the test system is SF-268 CNS. Description: NCI tumour cell line growth inhibition, 48 h.
`N#Cc1c(N2CCOCC2)nc(=S)[nH]c1-c1ccco1`: the GI50 was 10.9 µM and the TGI was over 100 µM.

With `C[C@@H]1CN(Cc2ccc(F)cc2)[C@@H](C)CN1C(=O)c1cc2c(C(=O)C(=O)N(C)C)cn(C)c2cc1Cl`, the GI50 was 18.5 µM and the TGI worked out at 46.1 µM.

On to `COc1ccccc1-c1cc(=O)c2cc(C)cnc2[nH]1`, for which the TGI is over 100 µM.

Consider `O=[N+]([O-])c1ccc(C=Cc2ccccc2)cc1.[C-]#[O+].[C-]#[O+].[C-]#[O+].[Cr]`, for which the GI50 is 32 µM and the TGI is over 100 µM.

Take `OCC1OC(n2cnc3c(N/N=C\c4ccccn4)ncnc32)C(O)C1O` (stereo unspecified): the GI50 is 0.167 µM and the TGI turned out to be 1 µM.

Compound `CC(=O)Nc1ccc(SC#N)c2c(NC(C)=O)cccc12` returned a TGI of over 100 µM.

As to `COc1cc2c(cc1OCCCn1c(-c3ccccn3)nc3ccccc31)N=C[C@@H]1CCCN1C2=O`, the GI50 was 3.07 µM and the TGI worked out at 9.79 µM.

Take `c1cnn2ncc(-c3ccnc(NCCCN4CCOCC4)n3)c2c1`: the GI50 is 6.39 µM and the TGI is over 23.3 µM.
